Consider 3 molecules from patent publication US5104884A, “Triazolyl quinoline derivatives” (Alkaloida Vegyeszeti Gyar, priority 1985, dated 1992).

Each structure is given as a SMILES string. Like-named read-outs stand apart in the source and are kept apart here.

Data set [1] can be described thus: carrageenin edema inhibition in rats (antiphlogistic effect), Winter method. The conditions noted are these: Rattus norvegicus, po; for inhibition in vivo at 25 mg/kg: 25 mg/kg p.o.; for inhibition in vivo at 50 mg/kg: 50 mg/kg p.o.; for inhibition in vivo at 100 mg/kg: 100 mg/kg p.o. Format: in vivo, male Wistar rats. As to the method: Thus the orally administered compounds of the general Formula (I) efficiently reduce acute inflammatory processes. According to the method of Winter [Proc. Soc. Exp. Biol. Med. 111, 544 (1962)] carrageenin edema is induced and evaluated on male Wistar rats fasted for 16 hours body weight 160-180 g. Percental inhibition is calculated from the average edema values of the groups treated with the test compound on the one hand and with carrier carboxy methyl cellulose, CMC; control on the other. ED50 values are determined by means of regression analysis of the inhibition values. The test compounds are administered through a stomach canule in the form of a 1% carboxy methyl cellulose (CMC) suspension, one hour before introducing the carrageenin injection.
For orientation: In the carrageenan paw model, swelling and tenderness develop within hours.

Data set [2] can be described thus: ulcerogenic effect (stomach haemorrhage and ulcers). Type of data set: in vivo, male Wistar rats. The conditions noted are these: rat, po, acute test, rats, five hours after treatment, read-out: UD50.
Procedure: Five hours after treatment the animals are sacrificed and their stomachs are placed into a 2.5% formaline solution. The number and rate of punctiform haemorrhage and ulcers is evaluated according to the following scale:
1=some punctiform haemorrhage (<10);
2=diffuse haemorrhage or small ulcer (<2 mm);
3=two or more minor small ulcer (<2 mm);
4=one or more large ulcer (>2 mm).
Data set [3] is described as follows: adjuvant induced arthritis in rats, method of Newbold. Type of data set: in vivo, male Wistar rats. The conditions noted are these: Rattus norvegicus, po, 504 h, read-out: Percental inhibition of the growth of paw volume, on the 21st day. As to the method: According to the method of Newbold 0.1 ml of Freund complet adjuvant (Difco Lab. Mich. […] The volume of the hind paws is measured before and 21 days after the administration of the adjuvant with the aid of a mercury plethysmometer. […] In Table II the "percental inhibition of the growth of paw volume" relates to the value determined on the 21st day. […] The tests show furthermore that the compounds of the present invention are active not only in healing morphological deformations but effect in a desirable and useful manner the functional condition and fitness of the feet, moreover the general physical state and condition of the animals, too.

Data set [4] is described as follows: hot (56° C.) plate test on mice (analgesic effect). Type of data set: in vivo, male and female CFLP strain mice. The conditions noted are these: Mus musculus, po, 1 h, read-out: Lengthening of reaction time in %; for change in vivo at 100 mg/kg: 100 mg/kg p.o. As to the method:
The analgesic effect of the compounds of the present invention is tested according to the hot (56° C.) plate test on male and female CFLP strain mice weighing 18-22 g. The point of time of the appearence of the deterring reaction Abwehrreaktion is determined and related to the latent time measured on the control group Woolfe and McDonald 1944. At least 10 animals are used per dose. […] The test is carried out on separated male Wistar rats weighing 180-210 g and fasted for 16 hours. The test compounds are suspended in 1% carboxy methyl cellulose and administered orally in a dose of 10 ml/kg.

[5] abbreviates: read-out: Percental inhibition of paw volume.
Setting [6] is: rats, read-out: Percental inhibition of paw volume.
Where [7] appears, read: carrageenin edema, rats, p.o., regression analysis, read-out: ED50.

As a reminder, the ED50 is the midpoint of the dose-response relation. Turning to `COc1ccc2c(c1)c(CC(=O)O)c(C)n2C(=O)c1ccc(Cl)cc1` [Indomethacin, reference compound], the ED50 in data set [1] was 4.1 mg/kg. In data set [1] (setting [5]), the inhibition in vivo at 1 mg/kg was determined as 28%, the inhibition in vivo at 2 mg/kg amounted to 40%, the inhibition in vivo at 4 mg/kg is 47% and the inhibition in vivo at 8 mg/kg turned out to be 64%. For the same molecule, the inhibition in vivo at 12 mg/kg in data set [1] (setting [5]) turned out to be 67%. Besides, the TD50 at 5 h in data set [2] came to 6.3 mg/kg.
On to `COc1ccc2cc([C@H](C)C(=O)O)ccc2c1` [Naproxen, reference compound], for which the inhibition in vivo at 12.5 mg/kg in data set [1] (12.5 mg/kg p.o., rats, read-out: Percental inhibition of paw volume) was found to be 33%. Besides, in data set [1] (setting [6]), the inhibition in vivo at 25 mg/kg amounted to 49%, the inhibition in vivo at 50 mg/kg was 64% and the inhibition in vivo at 100 mg/kg was 71%. In data set [1] (setting [7]), the median effective dose (ED50) was 28.7 mg/kg. In addition, the inhibition in vivo at 12.5 mg/kg in data set [3] (12.5 mg/kg p.o.) was found to be 16.8%. In addition, the inhibition in vivo at 25 mg/kg in data set [3] (25 mg/kg p.o. daily for two weeks) came out at 28.4%. Further, the change in vivo at 12.5 mg/kg in data set [4] (12.5 mg/kg p.o.) came out at 25%. Moreover, the change in vivo at 25 mg/kg in data set [4] (25 mg/kg p.o.) turned out to be 31%. Also, the change in vivo at 50 mg/kg in data set [4] (50 mg/kg p.o.) stood at 45%. Moreover, the change in vivo at 100 mg/kg in data set [4] came out at 49%.
For the molecule `CCCCC1C(=O)N(c2ccccc2)N(c2ccccc2)C1=O` [Phenylbutazon, reference compound], in data set [1] (setting [6]), the inhibition in vivo at 25 mg/kg was 21%, the inhibition in vivo at 50 mg/kg turned out to be 42% and the inhibition in vivo at 100 mg/kg is 45%. For the same molecule, in data set [1] (200 mg/kg p.o., rats, read-out: Percental inhibition of paw volume), the inhibition in vivo at 200 mg/kg came to 66%. In addition, the ED50 in data set [1] (setting [7]) was 101 mg/kg. Moreover, in data set [3] (50 mg/kg p.o.), the inhibition in vivo at 50 mg/kg was determined as 18.5%. Further, the change in vivo at 100 mg/kg in data set [4] is 29%. Besides, the change in vivo at 150 mg/kg in data set [4] (150 mg/kg p.o.) is 42%. Besides, the change in vivo at 200 mg/kg in data set [4] (200 mg/kg p.o.) was determined as 44%.
